Here are results for 3 molecules from article PMC13172357 (Nature Communications, 2026).

The term Dmax denotes the largest share of the target that was removed. The term DC50 denotes the midpoint of the concentration-degradation curve. High values mean degradation only at high concentration, low ones degradation at low concentration.

The test system of experiment [1] is Panc89 cells. The experiment in a line: Total proteome analysis, DIA mass spectrometry, Panc89 cells. Type of experiment: cell-based, H. sapiens. The settings on record: DIA Panc89, 1 µM. The protocol:
(§1) Following treatment, cells were harvested, washed twice with PBS, and pellets were flash frozen in liquid nitrogen before being stored at −80 °C. Samples were prepared using the single-pot, solid-phase-enhanced sample-preparation (SP3) strategy. All buffers and solutions were prepared with mass spectrometry (MS)-grade water (Honeywell). Cell pellets were taken up in 100 µL 1x sample buffer (50 mM Hepes pH 8.0, 1% (wt/v) SDS, 1% (v/v) NP-40, 10 mM TCEP, 40 mM chloroacetamide) and samples were heated at 90 °C for 5 min prior to sonication with a Bioruptor UCD-300 (Diagenode) for ten cycles of 1 min pulse and 30 s pause at high power. The samples were then supplemented with Benzonase (20 U/sample) and sonified for 5 min in a water bath (Bandelin) followed by 30 min incubation at […].
The protein extracts were then centrifuged (20000 ×g, RT, 40 min) and the protein concentration of the cleared lysates was determined using the Pierce 660 nm Protein Assay Reagent (#22660; Thermo Scientific) with the Ionic Detergent Compatibility Reagent (#22663; Thermo Scientific) according to the manufacturers’ instructions. Next, 15 µg of total protein per sample in a volume of 100 µL sample buffer was transferred to a 500 µL 96-well plate and treated with 7 U of benzonase (#71206; Merck Millipore) in dilution buffer (20 mM Hepes pH 8.0, 2 mM MgCl2) at 37 °C for 30 min with agitation at 1500 rpm. […]

The test system of experiment [2] is Ma-Mel-47 cells. The experiment in a line: Total proteome analysis, DIA mass spectrometry, Ma-Mel-47 cells. Type of experiment: cell-based, H. sapiens. The note with it: DIA Ma-Mel-47, 1 µM. The protocol: as §1
(§2) The protein extracts were then centrifuged (20000 ×g, RT, 40 min) and the protein concentration of the cleared lysates was determined using the Pierce 660 nm Protein Assay Reagent (#22660; Thermo Scientific) with the Ionic Detergent Compatibility Reagent (#22663; Thermo Scientific) according to the manufacturers’ instructions. Next, 15 µg of total protein per sample in a volume of 100 µL sample buffer was transferred to a 500 µL 96-well plate and treated with 7 U of benzonase (#71206; Merck Millipore) in dilution buffer (20 mM Hepes pH 8.0, 2 mM MgCl2) at 37 °C for 30 min with agitation at 1500 rpm. After Benzonase treatment samples were heated to 90 °C for 5 min and after cooling down to room temperature, iodoacetamide to a final concentration of 10 mM was added for complete alkylation of cysteines (37 °C, 15 min, 1000 rpm, in the dark).
(§3) Then, 3 µL of a 50 µg/µL 1:1 mixture of hydrophilic (#45152105050250) and hydrophobic (#65152105050250) carboxylate modified Sera-Mag SpeedBeads (Cytiva), that were washed twice with MS-grade water, were added to the samples. The next steps were carried out at room temperature unless noted otherwise. Afterwards, the samples were mixed shortly (1 min, 1000 rpm) and collected by short centrifugation (10 s, 200 ×g). […]

The target of experiment [3] is HiBiT-USP7 (Homo sapiens, UniProt Q93009). The experiment in a line: HiBiT USP7 degradation assay, MV4-11 cells. The format is cell-based. The settings on record: for DC50: MV4-11 HiBiT-USP7, 24 h. The protocol: HiBiT-USP7 construct was cloned by extraction of USP7 fragment from plasmid pQHA-USP7 WT puroR (Addgene #46753) using appropriate restriction sites. The USP7 fragment was then ligated into the pRRL-PGK-HiBiT entry vector to generate the plasmid.
Chain of HiBiT-USP7 (Q93009 whole entry, the tested form may be a part): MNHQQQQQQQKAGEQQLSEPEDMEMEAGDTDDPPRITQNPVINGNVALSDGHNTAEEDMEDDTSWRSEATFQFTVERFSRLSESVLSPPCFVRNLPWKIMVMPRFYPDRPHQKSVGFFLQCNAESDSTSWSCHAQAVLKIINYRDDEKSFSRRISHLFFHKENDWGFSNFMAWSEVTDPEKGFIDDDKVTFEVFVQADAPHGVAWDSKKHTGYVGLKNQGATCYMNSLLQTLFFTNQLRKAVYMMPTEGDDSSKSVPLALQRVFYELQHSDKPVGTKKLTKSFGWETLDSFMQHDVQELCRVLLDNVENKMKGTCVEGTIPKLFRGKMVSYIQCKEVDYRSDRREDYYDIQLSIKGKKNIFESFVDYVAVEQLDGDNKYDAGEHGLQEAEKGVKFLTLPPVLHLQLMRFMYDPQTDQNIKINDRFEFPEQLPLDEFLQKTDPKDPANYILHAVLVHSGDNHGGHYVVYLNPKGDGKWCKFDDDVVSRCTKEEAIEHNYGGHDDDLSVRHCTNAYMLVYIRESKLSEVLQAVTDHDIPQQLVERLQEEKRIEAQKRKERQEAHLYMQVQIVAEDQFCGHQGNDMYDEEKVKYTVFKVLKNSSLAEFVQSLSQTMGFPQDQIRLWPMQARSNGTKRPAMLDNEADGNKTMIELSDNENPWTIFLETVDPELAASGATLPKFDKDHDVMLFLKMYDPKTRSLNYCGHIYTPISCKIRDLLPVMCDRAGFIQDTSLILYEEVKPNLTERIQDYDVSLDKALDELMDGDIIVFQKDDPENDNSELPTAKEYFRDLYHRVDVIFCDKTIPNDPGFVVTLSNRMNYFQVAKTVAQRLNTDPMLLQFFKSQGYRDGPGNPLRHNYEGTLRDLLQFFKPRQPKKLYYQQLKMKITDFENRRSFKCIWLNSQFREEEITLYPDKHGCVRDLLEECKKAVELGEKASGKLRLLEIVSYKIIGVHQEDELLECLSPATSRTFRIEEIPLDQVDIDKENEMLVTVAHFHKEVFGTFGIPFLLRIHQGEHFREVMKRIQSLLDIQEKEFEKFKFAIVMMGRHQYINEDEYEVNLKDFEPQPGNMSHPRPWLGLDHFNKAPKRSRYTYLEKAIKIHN
Lentiviral infection was used to generate stable a MV4-11 HiBiT cell line. Lentivirus was produced using plasmids psPAX2, pMD2.G, and HiBiT-USP7 plasmid in HEK293 cells. MV4-11 cells were infected with filtered virus supernatant and selected after 48 h of infection for the generation of the stable MV4-11^HiBiT-USP7 cell line.
The assay was performed as described previously. Briefly, MV4-11^HiBiT-USP7 cells were seeded and treated with compounds for the indicated time. Nano-Glo HiBiT Lytic Detection System (Promega) was used for the assay and luminescence was measured on a Tecan Spark microplate reader (Tecan). DC50 values were calculated using the sigmoidal dose-response (four parameters) equation in GraphPad Prism and are given as the concentration where 50% of the total signal was remaining. Dmax values are given as the maximum degradation observed at any concentration.

Experiment [4] has as its target T1, USP7 (Homo sapiens, UniProt Q93009).
T1 construct: allowed the analysis of endogenous USP7 degradation in both cell lines; endogenous in cells; host or cells: Panc89 (PDAC) and Ma-Mel-47 (melanoma) cells
Kind of experiment: Immunofluorescence staining of USP7, Panc89 cells. The settings on record: Panc89, 1 µM, 24 h. Type of experiment: cell-based. The method, then: Panc89 cells were seeded on 96-well plates (89626, Ibidi) and treated with either DMSO or compound for the indicated time and concentration. Cells were then fixed with 4% PFA in PBS for 20 min, permeabilized with 0.1% Triton X-100 in PBS for 10 min and incubated in blocking buffer containing 2% BSA in PBS for 1 h. Three 10 min washes with PBS were performed between different steps. Cells were treated with primary antibody anti-USP7 (ab190183, Abcam, rabbit, 1:500) in blocking solution for 1 h at RT. […] Finally, cells were stained with DAPI (Invitrogen, 1 µg/mL) in PBS for 10 min and mounted with aqueous mounting medium (50001, Ibidi) for microscopy. Plates were imaged on a fully automated inverted EVOS M7000 microscope system (Invitrogen) with X-Apo 20x air objective (0.8 NA, Olympus, AMEP4906) using DAPI (AMEP4950), GFP (AMEP4951), RFP (AMEP4952), and Cy5 (AMEP4956) LED light cubes. Images were captured using a high-sensitivity 3.2 MP monochrome CMOS camera and were processed with Omero (v. web 5.28.0).

The subject of experiment [5] is Panc89 cells. Kind of experiment: Total proteome analysis, DDA mass spectrometry, Panc89 cells. The format is cell-based, H. sapiens. The settings on record: DDA Panc89, 1 µM. The protocol: as §1, §2, §3
Experiment [6] has as its system Panc89 cells. Kind of experiment: Confluence measurement (cell growth), Panc89. Type of experiment: cell-based, human. The settings on record: Panc89, 1-10 µM, 72 h, 25 mM or 5 mM D-glucose.
Where [7] appears, read: MV4-11, MV4-11 HiBiT-USP7, 24 h.

T1 sequence (Q93009 whole entry): as the sequence (Q93009 whole entry, the tested form may be a part) above

As to `Cc1ncsc1-c1ccc(CNC(=O)[C@@H]2C[C@H](O)CN2C(=O)[C@@H](NC(=O)[C@H]2CC[C@H](C(=O)N3CCN(c4ccc(-n5ncc6c(=O)n(CC7(O)CCN(C(=O)C[C@@H](C)c8ccccc8)CC7)cnc65)cc4)CC3)CC2)C(C)(C)C)cc1` [NK245], the “Changes to the proteome (in words)” value in experiment [1] (72 h) and in experiment [2] (72 h) was “only showed minimal changes to the proteome” throughout. In addition, the “HiBiT-USP7 levels (in words)” value in experiment [3] (MV4-11 HiBiT-USP7, 6 h and 24 h) is on record as “partial reduction of USP7 levels”.
As for `Cc1ncsc1-c1ccc([C@H](C)NC(=O)[C@@H]2C[C@@H](O)CN2C(=O)[C@@H](NC(=O)[C@H]2CC[C@H](C(=O)N3CCN(c4ccc(-n5ncc6c(=O)n(CC7(O)CCN(C(=O)C[C@@H](C)c8ccccc8)CC7)cnc65)cc4)CC3)CC2)C(C)(C)C)cc1` [NK250], the “Proteins significantly decreased (in words)” value in experiment [1] (6 h) is given as “USP7 was the only protein that was significantly decreased”; in experiment [5] (6 h) it was “USP7 was the only protein significantly decreased”. In addition, in experiment [4], the “USP7 immunofluorescence signal (in words)” value is “strongly reduced”. The “Reduction of USP7 protein levels” value in experiment [5] (after three days) is on record as “more than 100 fold”. In addition, the Dmax is 87% in experiment [3] (MV4-11, MV4-11 HiBiT-USP7, 6 h) and 90 to 92% in experiment [3] (setting [7]). This molecule also had a DC50 in experiment [3] of 4 nM. Also, the “Cell growth (in words)” value in experiment [6] is “not affected”.
For the molecule `Cc1ncsc1-c1ccc([C@H](C)NC(=O)[C@@H]2C[C@@H](O)CN2C(=O)[C@@H](NC(=O)C23C4C5C2C2C3C4C52C(=O)N2CCC(C3CCN(c4ccc(-n5ncc6c(=O)n(CC7(O)CCN(C(=O)C[C@@H](C)c8ccccc8)CC7)cnc65)cc4)CC3)CC2)C(C)(C)C)cc1` (stereo partly shown) [NK266], the “USP7 protein level change (in words)” value was “only minimal reduction” in experiment [2] (6 h) and “the most decreased protein” in experiment [2] (24 h). The Dmax in experiment [3] (MV4-11, MV4-11 HiBiT-USP7, 6 h) was 74%; in experiment [3] (setting [7]), 90 to 92%. Besides, the DC50 in experiment [3] was found to be 24 nM.
